From patent US20240041042A1, “1-(PYRIDYL)-5-AZINYLPYRAZOLE DERIVATIVES, AND THEIR USE FOR CONTROL OF UNDESIRED PLANT GROWTH” (Bayer Aktiengesellschaft, priority 2020, published 2024)
Where two headings read alike, the source gives them in different places.

How the values were obtained:
Assay type in all cases: in vivo
[1] = tested on: Alopecurus myosuroides (ALOMY); assay: Post-emergence herbicidal action against ALOMY; settings: 80 g/ha, visual rating about 3 weeks after treatment vs untreated controls (100% = plants have died, 0% = like control plants)
Outline: (§1)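 Values are percent visual activity (0% like control, 100% plants dead) after about 3 weeks in the greenhouse. Treatment: post-emergence spray at one-leaf stage, 600 l/ha spray volume, 0.5% additive, doses 320 g/ha or lower.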

[2] = tested on: Matricaria inodora (MATIN); assay: Pre-emergence herbicidal action against MATIN; settings: dosage 320 g/ha
Outline: (§2)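 Pre-emergence soil-surface spray of compound, formulated as wettable powder or emulsion concentrate, in aqueous suspension or emulsion with 0.5% additive (600 l/ha; rate 320 g/ha or less). Activity rated visually after roughly 3 weeks in the greenhouse as a percentage of untreated controls, 0% meaning no difference.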

Viola tricolor (VIOTR) [3] = assay: Post-emergence herbicidal action against VIOTR
Outline: as §1

[4] = tested on: Echinochloa crus-galli (ECHCG); assay: Pre-emergence herbicidal action against ECHCG; settings: dosage 320 g/ha
Outline: as §2

[5] = tested on: Pharbitis purpurea (PHBPU); assay: Post-emergence herbicidal action against PHBPU
Outline: as §1

[6] = tested on: Alopecurus myosuroides (ALOMY); assay: Pre-emergence herbicidal action against ALOMY; settings: scored visually after about 3 weeks, 100% = plants have died
Outline: as §2

[7] = tested on: Digitaria sanguinalis (DIGSA); assay: Pre-emergence herbicidal action against DIGSA
Outline: as §2

Lolium rigidum (LOLRI) [8] = assay: Pre-emergence herbicidal action against LOLRI
Outline: as §2

Lolium rigidum (LOLRI) [9] = assay: Post-emergence herbicidal action against LOLRI; settings: dosage 80 g/ha
Outline: as §1

[10] = tested on: Digitaria sanguinalis (DIGSA); assay: Post-emergence herbicidal action against DIGSA; settings: 80 g/ha, visual rating about 3 weeks after treatment
Outline: as §1

Setaria viridis (SETVI) [11] = assay: Pre-emergence herbicidal action against SETVI
Outline: as §2

Oryza sativa (ORYSA) [12] = settings: crop plant compatibility
Outline: (§3)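 Test crops were treated 2 to 3 weeks after sowing, once they reached one leaf, by spraying compound in water with 0.5% additive at 600 l/ha. Visual scoring compared them with untreated controls roughly 3 weeks on, and appendices a, b and c denote different doses.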

Avena fatua (AVEFA) [13] = assay: Pre-emergence herbicidal action against AVEFA; settings: 320 g/ha, visual scoring after about 3 weeks vs untreated controls
Outline: as §2

[14] = tested on: Verconica persica (VERPE); assay: Pre-emergence herbicidal action against VERPE; settings: dosage 320 g/ha
Outline: as §2

Oryza sativa (ORYSA) [15] = settings: pre-emergence, 80 g/ha, crop plant compatibility, in comparison to untreated controls
Outline: (§4)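 Scoring: visual, % of untreated control, about 3 weeks after a pre-emergence application to the soil surface. Application used WP or EC formulations diluted in water with 0.5% additive at 600 l/ha; dosage levels are marked by suffixes a, b and c.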

[16] = tested on: Amaranthus retroflexus (AMARE); assay: Post-emergence herbicidal action against AMARE
Outline: as §1

[17] = tested on: Matricaria inodora (MATIN); assay: Post-emergence herbicidal action against MATIN
Outline: as §1

[18] = tested on: Echinochloa crus-galli (ECHCG); assay: Post-emergence herbicidal action against ECHCG; settings: dosage 80 g/ha
Outline: as §1

Avena fatua (AVEFA) [19] = assay: Post-emergence herbicidal action against AVEFA; settings: 80 g/ha, visual rating about 3 weeks after treatment
Outline: as §1

[20] = tested on: Amaranthus retroflexus (AMARE); assay: Pre-emergence herbicidal action against AMARE; settings: visual scoring after about 3 weeks vs untreated controls
Outline: as §2

Setaria viridis (SETVI) [21] = assay: Post-emergence herbicidal action against SETVI; settings: dosage 80 g/ha
Outline: as §1

[22] = tested on: Abutilon theophrasti (ABUTH); assay: Post-emergence herbicidal action against ABUTH; settings: 80 g/ha, visual rating about 3 weeks after treatment vs untreated controls (100% = plants have died, 0% = like control plants)
Outline: as §1

Viola tricolor (VIOTR) [23] = assay: Pre-emergence herbicidal action against VIOTR; settings: 320 g/ha, Viola tricolor
Outline: as §2

[24] = tested on: Verconica persica (VERPE); assay: Post-emergence herbicidal action against VERPE
Outline: as §1

[25] = tested on: Polygonum convolvulus (POLCO); assay: Pre-emergence herbicidal action against POLCO; settings: dosage 320 g/ha
Outline: as §2

[26] = tested on: Pharbitis purpurea (PHBPU); assay: Pre-emergence herbicidal action against PHBPU
Outline: as §2

[27] = tested on: Polygonum convolvulus (POLCO); assay: Post-emergence herbicidal action against POLCO; settings: dosage 320 g/ha
Outline: as §1

Zea mays (ZEAMX) [28] = settings: crop plant compatibility, 80 g/ha, effect vs untreated controls
Outline: as §3

Zea mays (ZEAMX) [29] = settings: pre-emergence, 80 g/ha, crop plant compatibility, in comparison to untreated controls
Outline: as §4

[30] = 80 g/ha, visual scoring after about 3 weeks vs untreated controls
[31] = 20 g/ha, effect vs untreated controls
[32] = 80 g/ha, visual rating about 3 weeks after treatment vs untreated controls (100% = plants have died, 0% = like control plants)
[33] = 80 g/ha, effect in comparison to untreated controls

Row | Post-emergence action against ORYSA in % (Oryza sativa (ORYSA) [12]; [31]) | Pre-emergence action against ORYSA in % (Oryza sativa (ORYSA) [15]) | Compound | Post-emergence action against ALOMY in % [1] | Pre-emergence action against MATIN in % [2] | Post-emergence action against VIOTR in % (Viola tricolor (VIOTR) [3]; 80 g/ha) | Post-emergence action against PHBPU in % ([5]; dosage 80 g/ha) | Pre-emergence action against ALOMY ([6]; 80 g/ha) | Pre-emergence action against ALOMY ([6]; 320 g/ha) | Pre-emergence action against DIGSA in % [7, 30] | Pre-emergence action against DIGSA in % ([7]; dosage 320 g/ha) | Pre-emergence action against LOLRI in % (Lolium rigidum (LOLRI) [8]; dosage 80 g/ha) | Pre-emergence action against LOLRI in % (Lolium rigidum (LOLRI) [8]; dosage 320 g/ha) | Post-emergence action against DIGSA in % [10] | Pre-emergence action against SETVI in % (Setaria viridis (SETVI) [11]; dosage 80 g/ha) | Pre-emergence action against SETVI in % (Setaria viridis (SETVI) [11]; dosage 320 g/ha) | Pre-emergence action against AVEFA in % (Avena fatua (AVEFA) [13]) | Pre-emergence action against VERPE in % [14] | Post-emergence action against AMARE in % [16, 32] | Post-emergence action against MATIN in % ([17]; dosage 80 g/ha) | Pre-emergence action against AMARE in % ([20]; 320 g/ha) | also measured
1 | 10% | 20% | COC(=O)CNC(=O)COc1nn(-c2ccccn2)c(-c2ccc(F)nc2)c1Cl [Example I-64] | 100% | 90% | 80% | 90% | 90% | 100% | 100% | 100% | 80% | 100% | 90% | 90% | 100% | 90% | 90% | 90% | 90% | 100% | Pre-emergence action against ECHCG in % [4]: 100%; Post-emergence action against LOLRI in % (Lolium rigidum (LOLRI) [9]): 80%; Post-emergence action against ECHCG in % [18]: 90%; Post-emergence action against AVEFA in % (Avena fatua (AVEFA) [19]): 80%; Pre-emergence action against AMARE in % ([20]; 80 g/ha): 100%; Post-emergence action against SETVI in % (Setaria viridis (SETVI) [21]): 90%; Post-emergence action against ABUTH in % [22]: 90%; Pre-emergence action against VIOTR in % (Viola tricolor (VIOTR) [23]): 90%; Post-emergence action against VERPE in % ([24]; dosage 80 g/ha): 90%; Pre-emergence action against POLCO in % [25]: 90%; Pre-emergence action against PHBPU in % ([26]; dosage 80 g/ha): 90%; Pre-emergence action against PHBPU in % ([26]; dosage 320 g/ha): 90%
2 | 0% | 10% | COC(=O)CNC(=O)COc1nn(-c2ccccn2)c(-c2ccc(F)nc2)c1Br [Example I-97] | 90% | 80% | 80% | 80% | 90% | 100% | 100% | 100% | 80% | 100% | 80% | 80% | 100% | 80% | 90% | 90% | 80% | 100% | Post-emergence action against ORYSA in % (Oryza sativa (ORYSA) [12]; [33]): 10%; Post-emergence action against ECHCG in % [18]: 80%; Post-emergence action against AVEFA in % (Avena fatua (AVEFA) [19]): 80%; Pre-emergence action against AMARE in % ([20]; 80 g/ha): 90%; Post-emergence action against SETVI in % (Setaria viridis (SETVI) [21]): 80%; Post-emergence action against ABUTH in % [22]: 90%; Pre-emergence action against VIOTR in % (Viola tricolor (VIOTR) [23]): 100%; Post-emergence action against VERPE in % ([24]; dosage 80 g/ha): 90%; Pre-emergence action against POLCO in % [25]: 90%; Pre-emergence action against PHBPU in % ([26]; dosage 320 g/ha): 90%
3 | – | 0% | COC(=O)CCOC(=O)COc1nn(-c2ccccn2)c(-c2ccc(Cl)nc2)c1Br [Example I-246] | – | – | 80% | 80% | – | – | – | 90% | – | – | – | – | – | – | 80% | – | – | 90% | Post-emergence action against VIOTR in % (Viola tricolor (VIOTR) [3]; 320 g/ha): 80%; Post-emergence action against PHBPU in % ([5]; dosage 320 g/ha): 80%; Post-emergence action against POLCO in % [27]: 80%; Post-emergence action against ORYSA in % (Oryza sativa (ORYSA) [12]; [33]): 0%; Post-emergence action against ORYSA in % (Oryza sativa (ORYSA) [12]; 320 g/ha, effect in comparison to untreated controls): 10%; Post-emergence action against ZEAMX in % (Zea mays (ZEAMX) [28]): 10%; Pre-emergence action against ZEAMX in % (Zea mays (ZEAMX) [29]): 20%; Post-emergence action against AMARE in % ([16]; 320 g/ha, visual rating about 3 weeks after treatment): 80%; Post-emergence action against MATIN in % ([17]; dosage 320 g/ha): 80%; Post-emergence action against VERPE in % ([24]; 320 g/ha, VERPE): 80%
